Like-named read-outs stand apart in the source and are kept apart here.

What all share (format): cell-based
One assay has as its target SPAK (Homo sapiens, UniProt Q9UEW8). Nature of the assay: Cellular inhibition of SPAK phosphorylation (pSer373). Conditions: 50% inhibition of phosphorylation, n = 3, — = no inhibition. The text has this:
(§1) 8. Cellular Activity Profile of Inhibitors with the Salicyclic Amide
(§2) A list of the compounds evaluated for their ability to inhibit phosphorylation of SPAK/NKCC1/KCC3 activity is illustrated in Table 1 below.

The test system of the next assay is NKCC1. Nature of the assay: Cellular inhibition of NKCC1 phosphorylation (pThr203). To be noted: Isotonic conditions; n = 3; — = no inhibition; read-out: NKCC1 pThr203 (μM) Iso.
From the text: as §1, §2

A further assay concerns KCC3. In words: Cellular inhibition of KCC3 phosphorylation (pThr991, pThr1048). Conditions: n = 3, — = no inhibition.
From the text: as §1, §2

For the molecule `Cc1cc(C(C#N)c2ccc(Cl)cc2)c(Cl)cc1NC(=O)c1cc(Cl)ccc1O` (stereo not drawn) [1a (ZT-1a)], the IC50 at SPAK (Hypotonic conditions, read-out: SPAK pSer373 (μM) hypo) came to 3 µM; on SPAK (Isotonic conditions, read-out: SPAK pSer373 (μM) Iso), 1 µM; with NKCC1, 1 µM; with KCC3 (Hypotonic conditions, read-out: KCC3 pThr1048 (μM) hypo), 3 µM; in the assay with KCC3 (Isotonic conditions, read-out: KCC3 pThr991 (μM) Iso), 3 µM; in the assay on KCC3 (Isotonic conditions, read-out: KCC3 pThr1048 (μM) Iso), 1 µM.

Source of the values: US11925611B2, “Use of ZT-1A and analogs thereof to prevent and/or treat neurodegenerative and neurocognitive disorders” (United States Government as Represented by the Department …, priority 2021, dated 2024).
